Columns and labels:
[1] = tested on: TNFα production in human whole blood; assay: LPS induced TNFα production in human whole blood; type: cell-based; conditions: 1 ug/mL LPS, 20 hours
Procedure: (§1) Compounds of the present invention were also studied in in vitro cytokine production assays. Exemplary protocols follow.
(§2) Human whole blood and hWBC assays: Human whole blood was diluted by combining whole blood with no serum RPMI medium at a ratio of 1:1. 180 ul/well of the diluted whole blood/well was added to a 96 well plate. For WBC assay 100,000 cells/well were seeded in a 96-well plate with a volume of 100 ul/well. To make the compound master plate 9 ul of 30 mM compound solution was added into the wells in the assigned rows, then serial solutions with 4x dilutions were made in DMSO. That is, 9 uL of 100% DMSO were added into each of the rest wells and 3 uL of compound solution was taken from the one-step higher concentration solution and mixed well with the DMSO. An intermediate compound dilution plate was made by mixing 4 uL of the compound solution from the compound master plate with 196 uL of no serum RPMI medium. hWBC or human whole blood was treated for 0.5 hour by adding 20 uL/well of the compound and the control solutions from the intermediate compound plate to the cell plate. 80 uL/well or 20 uL/well of stimulant were then added to the human whole blood or hWBC respectively. […] The supernatants were then collected and cytokine levels were measured with ELISA for TNFα (R&D Systems, #DY210) and IFNα (R&D Systems, #41100-2) per manufacturer's instruction.

[2] = tested on: TNFα production in human whole blood; assay: R848 induced TNFα production in human whole blood; type: cell-based; conditions: 1 uM R848, 20 hours
Procedure: as §1, §2

IRAK4 = biological target: T1, IRAK4 (Homo sapiens, UniProt Q9NWZ3); assay: IRAK-4 activity inhibition assay (Caliper); type: biochemical; conditions: 3.5 nM IRAK4, 1.5 μM Peptide 8, 37 μM ATP
T1 construct: purchased CARNA Bioscience 09-145
T1 sequence (Q9NWZ3 1-460): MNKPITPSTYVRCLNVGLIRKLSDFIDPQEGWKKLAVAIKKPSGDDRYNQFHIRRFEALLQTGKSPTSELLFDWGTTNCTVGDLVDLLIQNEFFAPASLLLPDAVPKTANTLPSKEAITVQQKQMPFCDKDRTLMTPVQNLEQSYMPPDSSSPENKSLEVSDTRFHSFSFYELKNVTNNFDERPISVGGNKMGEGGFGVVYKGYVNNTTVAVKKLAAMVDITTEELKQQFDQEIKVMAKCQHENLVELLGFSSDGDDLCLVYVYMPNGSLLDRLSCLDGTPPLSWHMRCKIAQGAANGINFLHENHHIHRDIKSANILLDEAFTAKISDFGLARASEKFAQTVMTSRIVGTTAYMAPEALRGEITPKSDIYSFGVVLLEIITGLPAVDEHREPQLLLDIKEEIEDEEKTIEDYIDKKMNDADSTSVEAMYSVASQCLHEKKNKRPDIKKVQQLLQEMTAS
Procedure, shortened: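 Mobility-shift (Caliper) assay with 3.5 nM IRAK4 in 50 mM HEPES pH 7.5, 0.0015% Brij-35, 5 mM MgCl2, 1 mM MnCl2, 2 mM DTT. Enzyme preincubated with compound 10 min at room temperature, then 1.5 μM peptide 8 and 37 μM ATP for 40 min. Inhibition from conversion % relative to DMSO and no-enzyme controls; 10-point IC50.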

[3] = tested on: TNFα production in human white blood cells (hWBC); assay: R848 induced TNFα production in hWBC; type: cell-based; conditions: 1 uM R848, 20 hours
Procedure: as §1, §2

[4] = tested on: IFNα production in human white blood cells (hWBC); assay: CpG induced IFNα production in hWBC; type: cell-based; conditions: 0.5 uM CpG, 20 hours
Procedure: as §1, §2

[5] = tested on: TNFα production in human white blood cells (hWBC); assay: LPS induced TNFα production in hWBC; type: cell-based; conditions: 1 ug/mL LPS, 20 hours
Procedure: as §1, §2

| SMILES | IC50 [1] [nM] | IC50 [2] [nM] | IC50 (IRAK4) [nM] | IC50 [3] [nM] | IC50 [4] [nM] | IC50 [5] [nM] |
| --- | --- | --- | --- | --- | --- | --- |
| N#Cc1ccc2ncnc(N[C@H]3CC[C@H](N4CCOCC4)CC3)c2c1 [Compound I-3, 4-(((1r,4r)-4-morpholinocyclohexyl)amino)quinazoline-6-carbonitrile] | ≤ 250 | 250 to 1000 | ≤ 5000 | ≤ 250 | 1000 to 10000 | 250 to 1000 |
| N#Cc1ccc2ncnc(N[C@H]3CC[C@H](N4CCC5(CC4)CC5)CC3)c2c1 [Compound I-7, 4-(((1r,4r)-4-(6-azaspiro[2.5]octan-6-yl)cyclohexyl)amino)-quinazoline-6-carbonitrile] | ≤ 250 | ≤ 250 | ≤ 5000 | ≤ 250 | ≤ 250 | 1000 to 10000 |

Reference: patent US20150329498A1, “IRAK INHIBITORS AND USES THEREOF” (Nimbus Iris, Inc., priority 2014, published 2015)
